{
  "source": "patent US10358434B2",
  "about": "“2-(3-pyridinyl)-1H-benzimidazole derivative compound and medicament containing same” (NIHON MEDI-PHYSICS CO., LTD., priority 2014, dated 2019)",
  "key": {"[1]": {"system": "human adrenal gland section expressing aldosterone-producing adenoma", "test": "In vitro autoradiography using human adrenal adenoma", "format": "binding", "details": "section of FIG. 17(b)", "in_short": "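Autoradiography readout: PSL in equal-sized ROIs over adenoma (B2) and normal adrenal cortex (B1), expressed as B2/B1 and decay-corrected using half-life, applied activity and plate contact time. Tissue was surgically excised human adrenal, frozen and cut at 7 μm, incubated 10 min with 5-33 kBq/mL tracer in BSA-containing PBS, then imaged after 16-20 h exposure.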"}, "[2]": {"test": "In vivo kinetics experiment (radioactivity distribution)", "parameters": "species or system Wistar male rat", "details": "rat i.v., mean ± SD", "in_short": "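Tissue radioactivity (% ID/g) and adrenal-to-blood, liver, kidney, small intestine, muscle and fat ratios determined at 10, 30 and 60 min post-dose. Tracers (approximately 1 to 3.7 MBq, saline with 1 w/v % ascorbic acid) injected i.v. into caudal vein of anesthetized 9-week male Wistar rats; organs excised, weighed, counted.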"}, "[3]": {"test": "Plasma stability evaluation (TLC analysis)", "format": "in vitro ADME", "details": "37° C., 60 minutes, TLC analysis", "in_short": "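TLC analysis, using each compound's synthesis conditions, judged stability after methanol was added and samples were centrifuged to remove protein. Beforehand, each tracer had spent 60 minutes at 37° C in pooled heparinized normal human plasma.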"}},
  "data": [
    {"compound": "Cn1c(-c2cncc(Cn3ccnc3)c2)nc2ccc([123I])cc21", "note": "[[^123I] 607, 2-[5-{(1H-imidazol-1-yl)methyl}pyridin-3-yl]-6-[^123I]iodo-1-methyl-1H-benzo[d]imidazole]", "values": [
      {"measurement": "B2/B1 accumulation ratio", "setting": "[1]", "result": 0.90},
      {"measurement": "B2 (PSL value, aldosterone-producing adenoma)", "setting": "[1]; site 71b", "result": 5332},
      {"measurement": "B1 (PSL value, normal adrenal cortex)", "setting": "[1]; site 72b", "result": 5945},
      {"measurement": "Adrenal gland/blood ratio of radioactivity accumulation", "setting": "[2]; 10 min after administration", "result": "64.15 ± 4.03"},
      {"measurement": "Adrenal gland/fat ratio of radioactivity accumulation", "setting": "[2]; 10 min after administration", "result": "92.36 ± 15.53"},
      {"measurement": "Adrenal gland/kidney ratio of radioactivity accumulation", "setting": "[2]; 10 min after administration", "result": "5.73 ± 1.00"},
      {"measurement": "Adrenal gland/liver ratio of radioactivity accumulation", "setting": "[2]; 10 min after administration", "result": "3.85 ± 0.67"},
      {"measurement": "Adrenal gland/muscle ratio of radioactivity accumulation", "setting": "[2]; 10 min after administration", "result": "64.58 ± 8.21"},
      {"measurement": "Adrenal gland/small intestine ratio of radioactivity accumulation", "setting": "[2]; 10 min after administration", "result": "3.95 ± 0.40"},
      {"measurement": "Radioactivity distribution Adrenal gland", "setting": "[2]; 10 min after administration", "result": "11.13 ± 0.88", "unit": "% ID/g"},
      {"measurement": "Radioactivity distribution Bladder (including urine)", "setting": "[2]; 10 min after administration", "result": "1.20 ± 0.71", "unit": "% ID/g"},
      {"measurement": "Radioactivity distribution Blood", "setting": "[2]; 10 min after administration", "result": "0.17 ± 0.02", "unit": "% ID/g"},
      {"measurement": "Radioactivity distribution Fat", "setting": "[2]; 10 min after administration", "result": "0.12 ± 0.02", "unit": "% ID/g"},
      {"measurement": "Radioactivity distribution Femur", "setting": "[2]; 10 min after administration", "result": "0.86 ± 0.02", "unit": "% ID/g"},
      {"measurement": "Radioactivity distribution Heart", "setting": "[2]; 10 min after administration", "result": "0.66 ± 0.03", "unit": "% ID/g"},
      {"measurement": "Radioactivity distribution Kidney", "setting": "[2]; 10 min after administration", "result": "1.96 ± 0.19", "unit": "% ID/g"},
      {"measurement": "Radioactivity distribution Large intestine", "setting": "[2]; 10 min after administration", "result": "0.12 ± 0.02", "unit": "% ID/g"},
      {"measurement": "Radioactivity distribution Liver", "setting": "[2]; 10 min after administration", "result": "2.93 ± 0.40", "unit": "% ID/g"},
      {"measurement": "Radioactivity distribution Lung", "setting": "[2]; 10 min after administration", "result": "0.90 ± 0.07", "unit": "% ID/g"},
      {"measurement": "Radioactivity distribution Muscle (lower limbs)", "setting": "[2]; 10 min after administration", "result": "0.17 ± 0.02", "unit": "% ID/g"},
      {"measurement": "Radioactivity distribution Remaining whole body", "setting": "[2]; 10 min after administration", "result": "0.27 ± 0.03", "unit": "% ID/g"},
      {"measurement": "Radioactivity distribution Small intestine", "setting": "[2]; 10 min after administration", "result": "2.82 ± 0.12", "unit": "% ID/g"},
      {"measurement": "Radioactivity distribution Spleen", "setting": "[2]; 10 min after administration", "result": "4.93 ± 0.56", "unit": "% ID/g"},
      {"measurement": "Radioactivity distribution Stomach", "setting": "[2]; 10 min after administration", "result": "0.88 ± 0.20", "unit": "% ID/g"},
      {"measurement": "Radioactivity distribution Testis", "setting": "[2]; 10 min after administration", "result": "0.06 ± 0.01", "unit": "% ID/g"},
      {"measurement": "Radioactivity distribution Whole brain", "setting": "[2]; 10 min after administration", "result": "0.03 ± 0.00", "unit": "% ID/g"},
      {"measurement": "Adrenal gland/blood ratio of radioactivity accumulation", "setting": "[2]; 30 min after administration", "result": "163.89 ± 22.78"},
      {"measurement": "Adrenal gland/fat ratio of radioactivity accumulation", "setting": "[2]; 30 min after administration", "result": "109.60 ± 14.02"},
      {"measurement": "Adrenal gland/kidney ratio of radioactivity accumulation", "setting": "[2]; 30 min after administration", "result": "12.63 ± 4.53"},
      {"measurement": "Adrenal gland/liver ratio of radioactivity accumulation", "setting": "[2]; 30 min after administration", "result": "15.55 ± 2.37"},
      {"measurement": "Adrenal gland/muscle ratio of radioactivity accumulation", "setting": "[2]; 30 min after administration", "result": "114.11 ± 13.20"},
      {"measurement": "Adrenal gland/small intestine ratio of radioactivity accumulation", "setting": "[2]; 30 min after administration", "result": "2.89 ± 0.23"},
      {"measurement": "Radioactivity distribution Adrenal gland", "setting": "[2]; 30 min after administration", "result": "14.61 ± 1.60", "unit": "% ID/g"},
      {"measurement": "Radioactivity distribution Bladder (including urine)", "setting": "[2]; 30 min after administration", "result": "2.79 ± 0.51", "unit": "% ID/g"},
      {"measurement": "Radioactivity distribution Blood", "setting": "[2]; 30 min after administration", "result": "0.09 ± 0.00", "unit": "% ID/g"},
      {"measurement": "Radioactivity distribution Fat", "setting": "[2]; 30 min after administration", "result": "0.13 ± 0.01", "unit": "% ID/g"},
      {"measurement": "Radioactivity distribution Femur", "setting": "[2]; 30 min after administration", "result": "0.98 ± 0.16", "unit": "% ID/g"},
      {"measurement": "Radioactivity distribution Heart", "setting": "[2]; 30 min after administration", "result": "0.54 ± 0.05", "unit": "% ID/g"},
      {"measurement": "Radioactivity distribution Kidney", "setting": "[2]; 30 min after administration", "result": "1.24 ± 0.36", "unit": "% ID/g"},
      {"measurement": "Radioactivity distribution Large intestine", "setting": "[2]; 30 min after administration", "result": "0.12 ± 0.01", "unit": "% ID/g"},
      {"measurement": "Radioactivity distribution Liver", "setting": "[2]; 30 min after administration", "result": "0.94 ± 0.06", "unit": "% ID/g"},
      {"measurement": "Radioactivity distribution Lung", "setting": "[2]; 30 min after administration", "result": "0.72 ± 0.05", "unit": "% ID/g"},
      {"measurement": "Radioactivity distribution Muscle (lower limbs)", "setting": "[2]; 30 min after administration", "result": "0.13 ± 0.00", "unit": "% ID/g"},
      {"measurement": "Radioactivity distribution Remaining whole body", "setting": "[2]; 30 min after administration", "result": "0.27 ± 0.03", "unit": "% ID/g"},
      {"measurement": "Radioactivity distribution Small intestine", "setting": "[2]; 30 min after administration", "result": "5.06 ± 0.42", "unit": "% ID/g"},
      {"measurement": "Radioactivity distribution Spleen", "setting": "[2]; 30 min after administration", "result": "6.69 ± 1.24", "unit": "% ID/g"},
      {"measurement": "Radioactivity distribution Stomach", "setting": "[2]; 30 min after administration", "result": "1.17 ± 0.29", "unit": "% ID/g"},
      {"measurement": "Radioactivity distribution Testis", "setting": "[2]; 30 min after administration", "result": "0.09 ± 0.02", "unit": "% ID/g"},
      {"measurement": "Radioactivity distribution Whole brain", "setting": "[2]; 30 min after administration", "result": "0.02 ± 0.00", "unit": "% ID/g"},
      {"measurement": "Adrenal gland/blood ratio of radioactivity accumulation", "setting": "[2]; 60 min after administration", "result": "241.20 ± 39.48"},
      {"measurement": "Adrenal gland/fat ratio of radioactivity accumulation", "setting": "[2]; 60 min after administration", "result": "194.91 ± 44.02"},
      {"measurement": "Adrenal gland/kidney ratio of radioactivity accumulation", "setting": "[2]; 60 min after administration", "result": "18.18 ± 3.94"},
      {"measurement": "Adrenal gland/liver ratio of radioactivity accumulation", "setting": "[2]; 60 min after administration", "result": "27.59 ± 4.15"},
      {"measurement": "Adrenal gland/muscle ratio of radioactivity accumulation", "setting": "[2]; 60 min after administration", "result": "177.15 ± 43.41"},
      {"measurement": "Adrenal gland/small intestine ratio of radioactivity accumulation", "setting": "[2]; 60 min after administration", "result": "3.39 ± 0.53"},
      {"measurement": "Radioactivity distribution Adrenal gland", "setting": "[2]; 60 min after administration", "result": "18.47 ± 2.05", "unit": "% ID/g"},
      {"measurement": "Radioactivity distribution Bladder (including urine)", "setting": "[2]; 60 min after administration", "result": "2.99 ± 1.26", "unit": "% ID/g"},
      {"measurement": "Radioactivity distribution Blood", "setting": "[2]; 60 min after administration", "result": "0.08 ± 0.01", "unit": "% ID/g"},
      {"measurement": "Radioactivity distribution Fat", "setting": "[2]; 60 min after administration", "result": "0.10 ± 0.02", "unit": "% ID/g"},
      {"measurement": "Radioactivity distribution Femur", "setting": "[2]; 60 min after administration", "result": "1.17 ± 0.10", "unit": "% ID/g"},
      {"measurement": "Radioactivity distribution Heart", "setting": "[2]; 60 min after administration", "result": "0.43 ± 0.08", "unit": "% ID/g"},
      {"measurement": "Radioactivity distribution Kidney", "setting": "[2]; 60 min after administration", "result": "1.04 ± 0.19", "unit": "% ID/g"},
      {"measurement": "Radioactivity distribution Large intestine", "setting": "[2]; 60 min after administration", "result": "0.16 ± 0.03", "unit": "% ID/g"},
      {"measurement": "Radioactivity distribution Liver", "setting": "[2]; 60 min after administration", "result": "0.67 ± 0.04", "unit": "% ID/g"},
      {"measurement": "Radioactivity distribution Lung", "setting": "[2]; 60 min after administration", "result": "0.65 ± 0.15", "unit": "% ID/g"},
      {"measurement": "Radioactivity distribution Muscle (lower limbs)", "setting": "[2]; 60 min after administration", "result": "0.11 ± 0.02", "unit": "% ID/g"},
      {"measurement": "Radioactivity distribution Remaining whole body", "setting": "[2]; 60 min after administration", "result": "0.26 ± 0.01", "unit": "% ID/g"},
      {"measurement": "Radioactivity distribution Small intestine", "setting": "[2]; 60 min after administration", "result": "5.48 ± 0.49", "unit": "% ID/g"},
      {"measurement": "Radioactivity distribution Spleen", "setting": "[2]; 60 min after administration", "result": "6.95 ± 0.95", "unit": "% ID/g"},
      {"measurement": "Radioactivity distribution Stomach", "setting": "[2]; 60 min after administration", "result": "1.52 ± 0.61", "unit": "% ID/g"},
      {"measurement": "Radioactivity distribution Testis", "setting": "[2]; 60 min after administration", "result": "0.11 ± 0.02", "unit": "% ID/g"},
      {"measurement": "Radioactivity distribution Whole brain", "setting": "[2]; 60 min after administration", "result": "0.02 ± 0.00", "unit": "% ID/g"},
      {"measurement": "Radiochemical purity after incubation in human plasma", "setting": "[3]", "result": 84, "unit": "%"}
    ]}
  ]
}
